One assay deals with T1, Human sEH (Homo sapiens, UniProt P34913).
T1 sequence (P34913 1-555): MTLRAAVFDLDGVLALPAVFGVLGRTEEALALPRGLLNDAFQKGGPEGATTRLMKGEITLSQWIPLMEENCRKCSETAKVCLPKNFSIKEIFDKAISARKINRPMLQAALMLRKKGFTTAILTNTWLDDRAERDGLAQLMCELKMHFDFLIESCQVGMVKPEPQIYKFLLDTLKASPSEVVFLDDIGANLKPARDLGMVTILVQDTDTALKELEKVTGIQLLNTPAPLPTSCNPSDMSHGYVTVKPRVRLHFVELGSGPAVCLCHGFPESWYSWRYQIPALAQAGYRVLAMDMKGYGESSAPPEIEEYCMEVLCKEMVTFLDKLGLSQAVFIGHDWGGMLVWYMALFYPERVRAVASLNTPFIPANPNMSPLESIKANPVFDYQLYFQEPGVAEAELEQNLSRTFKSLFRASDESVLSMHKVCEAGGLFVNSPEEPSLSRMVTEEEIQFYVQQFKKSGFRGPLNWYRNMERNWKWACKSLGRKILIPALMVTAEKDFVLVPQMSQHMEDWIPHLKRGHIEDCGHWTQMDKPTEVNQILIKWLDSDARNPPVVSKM
The experiment in a line: Human sEH inhibition assay. The note with it: sEH IC50, human sEH 1 nM, CMNPC 5 μM, pH 7.0, 30 °C. The class given is biochemical.

Another assay has as its target T2, human FAAH enzyme (Homo sapiens, UniProt O00519).
T2 sequence (O00519 1-579): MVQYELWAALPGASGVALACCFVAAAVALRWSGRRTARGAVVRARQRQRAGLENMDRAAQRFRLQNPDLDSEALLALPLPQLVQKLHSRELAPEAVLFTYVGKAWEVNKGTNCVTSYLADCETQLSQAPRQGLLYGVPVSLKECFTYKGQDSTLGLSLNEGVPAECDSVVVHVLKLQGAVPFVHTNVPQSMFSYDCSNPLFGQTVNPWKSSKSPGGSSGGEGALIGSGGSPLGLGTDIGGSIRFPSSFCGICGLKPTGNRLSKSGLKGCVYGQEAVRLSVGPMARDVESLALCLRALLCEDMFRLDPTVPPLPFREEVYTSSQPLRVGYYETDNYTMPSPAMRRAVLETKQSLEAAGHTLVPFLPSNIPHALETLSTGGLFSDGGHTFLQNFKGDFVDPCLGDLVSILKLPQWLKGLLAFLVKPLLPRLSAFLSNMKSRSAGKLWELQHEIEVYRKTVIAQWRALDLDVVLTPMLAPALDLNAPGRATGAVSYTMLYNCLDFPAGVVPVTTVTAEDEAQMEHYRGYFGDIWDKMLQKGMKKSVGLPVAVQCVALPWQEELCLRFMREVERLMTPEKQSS
Description: Human FAAH enzyme inhibition assay. In kind it is biochemical.

Molecules are shown by their SMILES.

In general, IC50 refers to the point on the concentration scale where inhibition reaches its midpoint. Read a low IC50 as greater potency in that assay. Take `O=C(Nc1ccc(-c2nc3ccccc3s2)cc1)C1CCN(S(=O)(=O)c2ccccc2)CC1` [Compound 4-3, N-(4-(benzo[d]thiazol-2-yl)phenyl)-1-(phenylsulfonyl)piperidine-4-carboxamide]: the concentration for half-maximal inhibition (IC50) against Human sEH was 1100 nM; against human FAAH enzyme, 8.6 nM.

Take `Cc1ccc(S(=O)(=O)N2CCC(C(=O)Nc3ccc(-c4nc5ccccc5s4)cc3)CC2)cc1` [Compound 4-17, N-(4-(benzo[d]thiazol-2-yl)phenyl)-1-tosylpiperidine-4-carboxamide]: the values for the IC50 on Human sEH and on human FAAH enzyme were 370 nM and > 10000 nM, respectively.

Take `Cc1ccc(S(=O)(=O)N2CCC(C(=O)Nc3ccc(-c4nc5ccccc5s4)cc3)CC2)c(C)c1` [Compound 4-22, N-(4-(benzo[d]thiazol-2-yl)phenyl)-1-((2,4-dimethylphenyl)sulfonyl)piperidine-4-carboxamide]: the half-maximal inhibitory concentration (IC50) against Human sEH is 29.2 nM; at human FAAH enzyme it was 5.5 nM.

For the molecule `O=C(Nc1ccc(-c2nc3ccccc3s2)cc1)C1CCN(S(=O)(=O)c2cccs2)CC1` [Compound 4-1, N-(4-(benzo[d]thiazol-2-yl)phenyl)-1-(thiophen-2-ylsulfonyl)piperidine-4-carboxamide], the IC50 is 420 nM against Human sEH and 16 nM on human FAAH enzyme.

As for `COc1ccccc1S(=O)(=O)N1CCC(C(=O)Nc2ccc(-c3nc4ccccc4s3)cc2)CC1` [Compound 4-8, N-(4-(benzo[d]thiazol-2-yl)phenyl)-1-((2-methoxyphenyl)sulfonyl)piperidine-4-carboxamide], the values for the IC50 against Human sEH and at human FAAH enzyme were 26 nM and 80 nM, respectively.

Consider `CC(C)c1cc(C(C)C)c(S(=O)(=O)N2CCC(C(=O)Nc3ccc(-c4nc5ccccc5s4)cc3)CC2)c(C(C)C)c1` [Compound 4-29, N-(4-(benzo[d]thiazol-2-yl)phenyl)-1-((2,4,6-triisopropylphenyl)sulfonyl)piperidine-4-carboxamide], for which the IC50 on Human sEH worked out at 840 nM; on human FAAH enzyme it was 2230 nM.

On to `Cc1cc(C)c(S(=O)(=O)N2CCC(C(=O)Nc3ccc(-c4nc5ccccc5s4)cc3)CC2)c(C)c1` [Compound 4-28, N-(4-(benzo[d]thiazol-2-yl)phenyl)-1-(mesitylsulfonyl)piperidine-4-carboxamide], for which the values for the IC50 on Human sEH and at human FAAH enzyme were 790 nM and 84 nM, respectively.

With `O=C(Nc1ccc(-c2nc3ccccc3s2)cc1)C1CCN(S(=O)(=O)c2ccc(Cl)cc2)CC1` [Compound 4-15, N-(4-(benzo[d]thiazol-2-yl)phenyl)-1-((4-chlorophenyl)sulfonyl)piperidine-4-carboxamide], the IC50 at Human sEH came out at 710 nM; against human FAAH enzyme, 260 nM.

Consider `O=C(Nc1ccc(-c2nc3ccccc3s2)cc1)C1CCN(S(=O)(=O)c2c(F)cc(F)cc2F)CC1` [Compound 4-26, N-(4-(benzo[d]thiazol-2-yl)phenyl)-1-((2,4,6-trifluorophenyl)sulfonyl)piperidine-4-carboxamide], for which the IC50 was found to be 6600 nM against Human sEH and 250 nM on human FAAH enzyme.

Take `O=C(Nc1ccc(-c2nc3ccccc3s2)cc1)C1CCN(S(=O)(=O)c2ccc(Br)cc2)CC1` [Compound 4-16, N-(4-(benzo[d]thiazol-2-yl)phenyl)-1-((4-bromophenyl)sulfonyl)piperidine-4-carboxamide]: the IC50 turned out to be 580 nM on Human sEH and 185 nM against human FAAH enzyme.

Consider `O=C(Nc1ccc(-c2nc3ccccc3s2)cc1)C1CCN(S(=O)(=O)c2cccc(F)c2)CC1` [Compound 4-9, N-(4-(benzo[d]thiazol-2-yl)phenyl)-1-((3-fluorophenyl)sulfonyl)piperidine-4-carboxamide], for which the figures for the IC50 on Human sEH and against human FAAH enzyme were 1700 nM and 13.4 nM, respectively.

On to `COc1ccc(S(=O)(=O)N2CCC(C(=O)Nc3ccc(-c4nc5ccccc5s4)cc3)CC2)c(OC)c1` [Compound 4-23, N-(4-(benzo[d]thiazol-2-yl)phenyl)-1-((2,4-dimethoxyphenyl)sulfonyl)piperidine-4-carboxamide], for which the figures for the IC50 against Human sEH and against human FAAH enzyme were 180 nM and 36.2 nM, respectively.

Values taken from publication PMC7723751 (Bioorganic chemistry, 2020).
